A value given as a limit tells only on which side of the number the result lay.

The subject of one data set is wound models. Description: Wound model. In kind it is in vivo, mouse. Conditions: 1 nmol/kg subcutaneous single dose, BALB/c-nu/nu mice. The procedure: 5-week-old male BALB/c-nu/nu mice (Charles River Laboratories Japan, Inc.) were purchased and acclimatized for 1 week. Then, 5 mg of pentobarbital was intraperitoneally administered to each mouse for anesthesia. The skin was disinfected using ethanol for disinfection. The skin of the back was pulled with fingers with the mouse in the lateral position, and pressed and cut with a round knife for skin biopsy (disposable biopsy punch with plunger system) from one side toward the other side on a disinfected mat for drafting to prepare two defective injuries each having a diameter of 6 mm. […] Physiological saline was administered as a vehicle to a control group. A dressing was applied to cover the back including the wound sites. Change in the wound areas were observed over time.

For data set [1], the system named is DSS-induced colitis models. Put plainly: Dextran sodium sulfate (DSS)-induced colitis model. In kind it is in vivo. The settings on record: mouse. On the procedure: The compound (8) was subcutaneously administered to the back of each mouse. On the day following the administration (day 0), colitis model preparation was started by administration of 3% DSS as drinking water for 7 days. […] Physiological saline was administered as a vehicle to a control group. The body weight and the form of stool were evaluated on days 3, 5 and 7 counted from the start date of the DSS administration (day 0) on the basis of the scores shown in Table 4.

Data set [2] has as its system adjuvant-induced arthritis models. Description: Adjuvant-induced arthritis model. In kind it is in vivo. The settings on record: 1 and 10 nmol/kg subcutaneous, rat. On the procedure: The compound (8) was subcutaneously administered to each rat. […] Physiological saline was administered as a vehicle to a control group. The paw volumes and swelling rates of the right and left legs were measured on days 0 (day before the adjuvant administration), 4, 7, 10 and 14 using a paw volume measurement apparatus (MK-550, Muromachi Kikai Co., Ltd.). Inflammation scores on days 0 (day before the adjuvant administration), 4, 7, 10 and 14 were evaluated on the basis of the scores shown in Table 5.

The test system of the next data set is Wistar rat. Put plainly: Blood pressure-lowering effect, single intravenous dose in rat under anesthesia. The data set is classed as in vivo. Conditions: 1 nmol/kg, single dose into the vein. On the procedure:
Each compound prepared in experiments I-1 and II-1 or full-length AM was administered in a single dose of 1 nmol/kg into the vein of each rat under anesthesia, and change in the blood pressure of the rat was observed. Each 11 to 14-week-old male Wistar rat was anesthetized by the inhalation of isoflurane. After tracheotomy, inhalational anesthesia was controlled at an isoflurane concentration of 1.5 to 2.5% and a flow rate of 0.6 to 0.8 L/min. The right jugular vein was isolated from the rat, and a catheter tube corresponding to 26 G was inserted thereto. Next, the left carotid artery was isolated from the rat thus treated, and a catheter tube corresponding to 23 G was inserted thereto. From the catheter tube of the right jugular vein, a physiological saline-heparin solution (physiological saline: 100 mL; heparin: 1000 units) was infused at 2.4 mL/hr. […] The catheter inserted in the carotid artery was connected to a pressure transducer. […] In the diagram, the ordinate depicts a difference obtained by subtracting the average blood pressure before the administration of each drug from the average blood pressure at the time of the administration of each drug.

Data set [3] relates to spontaneously hypertensive rat (SHR). Put plainly: Effect of suppressing increase in blood pressure in spontaneously hypertensive rat (SHR) fed high-salt diet. The settings on record: 336 μg/100 μL subcutaneous single dose, SHR on high-salt diet (8% NaCl), 9 days after administration. In kind it is in vivo. On the procedure:
Each 8-week-old male SHR (approximately 200 g) was fed with a high-salt diet (8% NaCl). The compound (8) was administered in a form dissolved in physiological saline at the time of feeding with the high-salt diet. 100 μL of physiological saline was subcutaneously administered in a single dose to each male SHR (approximately 200 g) in the same condition as above in a control group.

Data set [4] can be described thus: Measurement over time of AM concentration in plasma after subcutaneous administration (RIA). In kind it is in vivo. The settings on record: 10 nmol/kg subcutaneous single dose, rat. On the procedure:
1 day, 7 days and 10 days after the start of the administration, 50 mg of pentobarbital was intraperitoneally administered, and 300 μL of blood was collected each time from the tail vain under anesthesia. Immediately, 300 μg of EDTA-2Na and […] of aprotinin were added to the obtained blood sample, and the mixture was centrifuged under conditions involving 10 minutes and 3000 rpm to obtain plasma. The AM concentration in the plasma of each sample was measured by radioimmunoassay (RIA) (Kitamura K, Ichiki Y, Tanaka M et al., Immunoreactive adrenomedullin in human plasma. FEBS Lett., vol. 341, p. 288-90, 1994).
The compound (37) prepared in experiment III-1 was subcutaneously administered in a single dose of 30 nmol/kg to each rat, and time-dependent change in the concentration in blood of the adrenomedullin derivative was observed. The compound (37) dissolved in physiological saline was subcutaneously administered to each 7- to 8-week-old male Wistar rat (approximately 250 g). 1 day, 2 days, 4 days, 7 days and 9 days after the start of the administration, 50 mg of pentobarbital was intraperitoneally administered, and 300 μL of blood was collected each time from the tail vain under anesthesia. Immediately, 300 μg of EDTA-2Na and […] of aprotinin were added to the obtained blood sample, and the mixture was centrifuged under conditions involving 10 minutes and 3000 rpm to obtain plasma. The AM concentration in the plasma of each sample was measured by RIA.

Data set [5] deals with TNBS-induced colitis models. Put plainly: 2,4,6-trinitrobenzenesulfonic acid (TNBS)-induced colitis model. In kind it is in vivo. Conditions: 1 nmol/kg subcutaneous, rat. On the procedure: 7-week-old male Wistar rats were acclimatized for 1 week. […] Fasting was carried out for 24 hours concurrently with the subcutaneous administration to remove stool from the body. Colitis models were prepared by procedures described below. The concentration of TNBS (Nacalai Tesque, Inc.) was adjusted to 30 mg/500 μL (in a 50% aqueous ethanol solution). 50 mg of pentobarbital was intraperitoneally administered, and a polyethylene catheter was inserted by 8 cm from the anus under anesthesia while slowly rotated, followed by injection of 500 μL of the drug solution (day 1). Then, the inverted state was maintained for 2 minutes. The body weight and the form of diarrhea were evaluated every day. 14 days later, 50 mg of pentobarbital was intraperitoneally administered, and blood collection from the heart and excision of the large intestine were carried out under anesthesia. The length and weight of the excised intestinal tract were measured and compared between the groups. […] In the diagram, (a) depicts the day on which the compound (8) or physiological saline was subcutaneously administered and fasting was started, and (b) depicts the day on which TNBS was administered.

Regarding “GL-2-branched CH3O-PEG (60k)-CH2-^αNH-(h.AM (1-52)) [Compound (8)]”, in the data set with wound models, the “reduction in the wound areas compared to the vehicle control group” value is “faster”. In addition, the “wet weight of the intestinal tract as compared to the vehicle control group” value in data set [1] (5 nmol/kg subcutaneous) is on record as “tendency to decrease”. The “length of the intestinal tract as compared to the vehicle control group” value in data set [1] (25 nmol/kg subcutaneous) is “tendency to increase”. Further, the “total score (weight loss, stool consistency, bleeding/mucous and bloody stool)” value in data set [1] (5 and 25 nmol/kg subcutaneous, 3% DSS) is “significant decrease”. Also, in data set [2], the “arthritis score (inflammation score) as compared to the vehicle control group” value is “significantly decreased”, the “paw volume as compared to the vehicle control group” value is “significantly decreased” and the “swelling rate as compared to the vehicle control group” value is listed as “significantly decreased”. Also, in the data set with Wistar rat, the “decrease in the blood pressure immediately after the administration, as compared to compound (2)” value is “further suppressed” and the “rapidly decreased blood pressure immediately after the administration” value was “not observed”. Besides, the “increase in the blood pressure compared to the control group” value in data set [3] is “suppressed”. The substance also showed a level at time molar at 24 h in data set [4] (1 day later) of at least 2.6 nM. In data set [4] (7 days later), this substance registered a level at time molar at 24 h of at least 0.74 nM. The same substance had a level at time molar at 24 h in data set [4] (10 days later) of at least 0.28 nM. In data set [5], the “pathological changes of the large intestine (autopsy report)” value is given as “evidently fewer” and the “weight loss due to the development of colitis” value is “improved”. In data set [5] (14 days later), the “decrease in the intestinal tract length of the large intestine compared to the vehicle control group” value is on record as “evidently suppressed” and the “increase in the weight of the large intestine compared to the vehicle control group” value is given as “evidently suppressed”.

The values above are taken from US11478551B2, “Long-acting adrenomedullin derivative” (University of Miyazaki, priority 2015, dated 2022).
